“Also recorded” adds a separate entry of the source.

Assay [1] concerns the target DgcA (CC3285) diguanylate cyclase (Caulobacter crescentus, UniProt Q9A3B9). Briefly: FRET-based DGC activity assay, dose-response. Format: biochemical. The following applies: for Hill coeff: from fitting the concentration-response curves; for remaining DGC activity of the enzyme-inhibitor-substrate complex: compound saturating concentration; for mode of modulation of DgcA activity / binding affinity towards DgcA: in words.

The target of assay [2] is mCYPet-YcgR-mYPet c-di-GMP biosensor (PilZ protein YcgR). The following applies: cited from earlier work; for biosensor FRET response: specificity for c-di-GMP.
Setting [3] is: IC50 (binding affinity) against DgcA, running text and figure legends.
Setting [4] is: IC50 ± SD, Table 2, negative and silent allosteric modulators.

For the compound `O=C(OCC(=O)N1CCCC1=O)c1ccc2ncsc2c1` [Compound 1, [2-oxo-2-(2-oxopyrrolidin-1-yl)ethyl] 1,3-benzothiazole-6-carboxylate], the IC50 (commonly the midpoint of a concentration-inhibition curve) in assay [1] (setting [3]) is < 10 µM; in assay [1] (IC50 ± SD, Table 1, 20 nM DgcA, 20 μM GTP, 25 °C, 1% DMSO) it was 4 ± 0.2 µM. The compound further returned a Hill coeff in assay [1] (Table 1) of 2.34 ± 0.19. In addition, the “% Activity ESI (DGC activity of the enzyme-substrate-inhibitor complex)” value in assay [1] (Table 1, inhibitor saturation) is listed as 1.40 ± 0.1%. The “remaining DGC activity of the enzyme-inhibitor-substrate complex” value in assay [1] was determined as 1.4%. Besides, in assay [1], the “mode of modulation of DgcA activity” value is “complete inhibition; also recorded: complete inhibitor; also recorded: complete negative allosteric modulator”.

On to `O=C(OCC(=O)N1CCCC1=O)c1ccc([N+](=O)[O-])cc1` [Compound 1r, 2-oxo-2-(2-oxopyrrolidin-1-yl)ethyl 4-nitrobenzoate], for which, in assay [1], the AC50 (usually the midpoint of the concentration-response curve, whichever way the signal moves) came out at 55.5 ± 13.6 µM; the “remaining DGC activity of the enzyme-inhibitor-substrate complex” value worked out at 156%; the “mode of modulation of DgcA activity” value was “positive modulators”. In assay [1] (Table 2, compound saturation), the “% Activity ESI (DGC activity of the enzyme-substrate-inhibitor complex)” value is 156.4 ± 1.7%. Also, the Hill coeff in assay [1] (Table 2) is 2.01 ± 0.18.

In assay [1] (setting [3]), `O=C(NCC(=O)N1CCCC1=O)c1ccc2ncsc2c1` [Compound 1s, N-(2-oxo-2-(2-oxopyrrolidin-1-yl)ethyl)-benzo[d]thiazole-6-carboxamide] registered an IC50 of 31.6 µM. In assay [1], the “remaining DGC activity of the enzyme-inhibitor-substrate complex” value was 48% and the “mode of modulation of DgcA activity” value is “partial inhibitor”.

Consider `Cc1nc2ccc(C(=O)OCC(=O)N3CCCC3=O)cc2s1` [Compound 1i, 2-oxo-2-(2-oxopyrrolidin-1-yl)ethyl 2-methylbenzo[d]thiazole-6-carboxylate], for which half-maximal inhibition in assay [1] (setting [4]) (IC50) was put at 52.9 ± 10.7 µM. The “% Activity ESI (DGC activity of the enzyme-substrate-inhibitor complex)” value in assay [1] (Table 2, compound saturation) was found to be 68.1 ± 8.8%. In assay [1] (Table 2), the Hill coeff worked out at 2.72 ± 1.28.

On to `CC(OC(=O)c1ccc2ncsc2c1)C(=O)N1CCCC1=O` (stereo not drawn) [Compound 1t, 1-oxo-1-(2-oxopyrrolidin-1-yl)propan-2-yl benzo[d]thiazole-6-carboxylate], for which the “binding affinity towards DgcA” value in assay [1] was “completely abolished binding affinity”.

`Cn1ccc2cc(C(=O)OCC(=O)N3CCCC3=O)ccc21` [Compound 1l, 2-oxo-2-(2-oxopyrrolidin-1-yl)ethyl 1-methyl-1H-indole-5-carboxylate]: in assay [1] (setting [4]), inhibition was half-maximal at 300 ± 37.7 µM (IC50). Also, in assay [1], the “binding affinity towards DgcA” value is “strongly reduced binding affinities” and the “mode of modulation of DgcA activity” value is “negative modulators”.

With `Cc1ccc(C)c(OCCCC(=O)Nc2ccc(N3CCOCC3)cc2)c1` [Compound 2, 4-(2,5-dimethylphenoxy)-N-(4-morpholin-4-ylphenyl)butanamide], the IC50 in assay [1] (setting [3]) is < 10 µM. The midpoint of inhibition in assay [1] (IC50 ± SD, Table 3, negative and silent allosteric modulators), the IC50, lay at 6.4 ± 0.5 µM. The “% Activity ESI (DGC activity of the enzyme-substrate-inhibitor complex)” value in assay [1] (Table 3, compound saturation) amounted to 31.4 ± 1.3%. Also, the Hill coeff in assay [1] (Table 3) amounted to 1.36 ± 0.13. In assay [1], the “remaining DGC activity of the enzyme-inhibitor-substrate complex” value is 31.4% and the “mode of modulation of DgcA activity” value is given as “partial inhibitor”.

For the compound `O=C(OCC(=O)N1CCCC1=O)c1ccc2[nH]ccc2c1` [Compound 1k, 2-oxo-2-(2-oxopyrrolidin-1-yl)ethyl 1H-indole-5-carboxylate], half-maximal inhibition in assay [1] (setting [4]) (IC50) required 324 ± 39 µM. Further, the “% Activity ESI (DGC activity of the enzyme-substrate-inhibitor complex)” value in assay [1] (Table 2, compound saturation) is listed as 6.3 ± 0.4%. The compound also returned a Hill coeff in assay [1] (Table 2) of 2.37 ± 0.30. In assay [1], the “binding affinity towards DgcA” value is reported as “strongly reduced binding affinities” and the “mode of modulation of DgcA activity” value was “negative modulators”.

For the compound `O=C(OCC(=O)N1CCCC1=O)c1ccc2scnc2c1` [Compound 1p, 2-oxo-2-(2-oxopyrrolidin-1-yl)ethyl benzothiazole-5-carboxylate], the IC50 in assay [1] (setting [3]) came out at 626 µM; in assay [1] (setting [4]), 627 ± 49 µM.

In the case of `O=C(OCCC(=O)N1CCCC1=O)c1ccc2ncsc2c1` [Compound 1u, 3-oxo-3-(2-oxopyrrolidin-1-yl)propyl benzo[d]thiazole-6-carboxylate], the “binding affinity towards DgcA” value in assay [1] is given as “completely abolished binding affinity”.

For `Nc1nc2c(ncn2[C@@H]2O[C@@H]3COP(=O)(O)O[C@H]4[C@@H](O)[C@H](n5cnc6c(=O)[nH]c(N)nc65)O[C@@H]4COP(=O)(O)O[C@H]3[C@H]2O)c(=O)[nH]1` [c-di-GMP, cyclic diguanosine monophosphate], in assay [2] (read-out: binding constant (KD) of the biosensor for c-di-GMP, 25°C), the Kd – broadly, the constant that tells how readily two partners part at equilibrium – was 0.198 µM.

Consider `O=C(OCC(=O)N1CCCC1=O)c1ccc2ncoc2c1` [Compound 1g, 2-oxo-2-(2-oxopyrrolidin-1-yl)ethyl benzo[d]oxazole-6-carboxylate], for which the IC50 in assay [1] (setting [4]) is 3.1 ± 0.7 µM. The “% Activity ESI (DGC activity of the enzyme-substrate-inhibitor complex)” value in assay [1] (Table 2, compound saturation) is recorded as 87.7 ± 4.2%. For the same compound, the Hill coeff in assay [1] (Table 2) came out at 2.35 ± 0.82. In assay [1], the “remaining DGC activity of the enzyme-inhibitor-substrate complex” value turned out to be 87.7% and the “mode of modulation of DgcA activity” value is listed as “silent allosteric modulators; also recorded: silent allosteric regulator”.

In turn, `O=C(OCC(=O)N1CCCC1=O)c1ccc2cnccc2c1` [Compound 1n, 2-oxo-2-(2-oxopyrrolidin-1-yl)ethyl isoquinoline-6-carboxylate] yielded a half-inhibitory concentration (IC50) in assay [1] (setting [4]) of 179 ± 10.5 µM. The “% Activity ESI (DGC activity of the enzyme-substrate-inhibitor complex)” value in assay [1] (Table 2, compound saturation) is 0.0 ± 2.0%. Also, the Hill coeff in assay [1] (Table 2) is 2.06 ± 0.15. Besides, in assay [1], the “binding affinity towards DgcA” value is reported as “strongly reduced binding affinities” and the “mode of modulation of DgcA activity” value is “negative modulators”.

As for `CN(C)c1ccc(C(=O)OCC(=O)N2CCCC2=O)cc1` [Compound 1q, 2-oxo-2-(2-oxopyrrolidin-1-yl)ethyl 4-(dimethylamino)benzoate], in assay [1], the AC50 was determined as 222 ± 85.6 µM, the “remaining DGC activity of the enzyme-inhibitor-substrate complex” value came out at 176% and the “mode of modulation of DgcA activity” value was “positive modulators”. Also, in assay [1] (Table 2, compound saturation), the “% Activity ESI (DGC activity of the enzyme-substrate-inhibitor complex)” value was found to be 176.1 ± 3.3%. This compound also registered a Hill coeff in assay [1] (Table 2) of 2.51 ± 0.68.

`Cn1cnc2cc(C(=O)OCC(=O)N3CCCC3=O)ccc21` [Compound 1m, 2-oxo-2-(2-oxopyrrolidin-1-yl)ethyl 1-methyl-1H-benzo[d]imidazole-5-carboxylate] returned a half-maximal inhibitory concentration (IC50) in assay [1] (setting [4]) of 82.2 ± 14.6 µM. For the same compound, the Hill coeff in assay [1] (Table 2) came out at 1.52 ± 0.28. In assay [1], the “binding affinity towards DgcA” value is “strongly reduced binding affinities” and the “mode of modulation of DgcA activity” value is “negative modulators”.

For the compound `Nc1nc2c(ncn2[C@@H]2O[C@@H]3COP(=O)(O)O[C@H]3[C@H]2O)c(=O)[nH]1` [cyclic GMP], the “biosensor FRET response” value in assay [2] was “no detectable response”.

With `Nc1nc2c(ncn2[C@@H]2O[C@H](COP(=O)(O)OP(=O)(O)OP(=O)(O)O)[C@@H](O)[C@H]2O)c(=O)[nH]1` [guanosine 5-triphosphate], the “biosensor FRET response” value in assay [2] is on record as “no detectable response”.

With `O=C(OCC(=O)N1CCCC1=O)c1ccccc1` [Compound 1h, 2-oxo-2-(2-oxopyrrolidin-1-yl)ethyl benzoate], in assay [1], the AC50 came out at 238 ± 72 µM, the “remaining DGC activity of the enzyme-inhibitor-substrate complex” value is recorded as 118% and the “mode of modulation of DgcA activity” value was “positive modulators; also recorded: positive allosteric regulator”. Further, the “% Activity ESI (DGC activity of the enzyme-substrate-inhibitor complex)” value in assay [1] (Table 2, compound saturation) is on record as 117.9 ± 1.4%. The compound further had a Hill coeff in assay [1] (Table 2) of 2.02 ± 0.19.

Consider `O=C(OCC(=O)N1CCCC1=O)c1ccc2nccnc2c1` [Compound 1o, 2-oxo-2-(2-oxopyrrolidin-1-yl)ethyl quinoxaline-6-carboxylate], for which the IC50 in assay [1] (setting [4]) was found to be 344 ± 19.9 µM. Also, the “% Activity ESI (DGC activity of the enzyme-substrate-inhibitor complex)” value in assay [1] (Table 2, compound saturation) turned out to be 0.0 ± 0.7%. The compound also displayed a Hill coeff in assay [1] (Table 2) of 2.22 ± 0.16. Also, in assay [1], the “binding affinity towards DgcA” value is “strongly reduced binding affinities” and the “mode of modulation of DgcA activity” value was “negative modulators”.

The compound `O=C(OCC(=O)N1CCCC1=O)c1ccc2occc2c1` [Compound 1j, 2-Oxo-2-(2-oxopyrrolidin-1-yl)ethyl benzofuran-5-carboxylate] had an IC50 in assay [1] (setting [4]) of 4.4 ± 2.2 µM. The “% Activity ESI (DGC activity of the enzyme-substrate-inhibitor complex)” value in assay [1] (Table 2, compound saturation) was found to be 92.2 ± 0.6%. Besides, the Hill coeff in assay [1] (Table 2) was 2.05 ± 0.12. Besides, in assay [1], the “remaining DGC activity of the enzyme-inhibitor-substrate complex” value was found to be 92.2% and the “mode of modulation of DgcA activity” value is given as “silent allosteric modulators”.

Source of the values: publication PMC6509406 (Chembiochem : a European journal of chemical biology, 2018).
